Laboratory results reported in ChEMBL document CHEMBL4316626, “N-Acyl pyrazoles: Effective and tunable inhibitors of serine hydrolases” (Bioorg Med Chem, 2019).

Assay: Inhibition of recombinant rat FAAH deltaTM mutant expressed in Escherichia coli using 14C-labeled oleamide as substrate preincubated for 3 hrs followed by substrate addition and measured by TLC based Dixon-plot analysis
Conditions: read-out: Ki(app)

Structure (SMILES) | Ki [nM]
Cc1cnn(C(=O)N2CCN(Cc3ccc(-c4ccccc4)cc3)CC2)c1 | 170
Cc1cnn(C(=O)N2CCN(C(=O)OC(C)(C)C)CC2)c1 | 850
O=C(NCc1ccc(Oc2ccccc2)cc1)n1cccn1 | 180
Cc1ccc(CNC(=O)n2cc(C#N)cn2)cc1 | > 5000
N#Cc1cnn(C(=O)NCCCCCc2ccccc2)c1 | 18
O=C(CCCCCCc1ccccc1)n1cccn1 | > 5000
O=C(OCCCc1ccccc1)n1cccn1 | > 5000
O=C(N1CCN(Cc2ccc3ccccc3c2)CC1)n1cc(I)cn1 | 0.29
N#Cc1cnn(C(=O)Nc2ccc3ccccc3c2)c1 | > 5000
Cc1cnn(C(=O)N2CCN(Cc3cccc(Oc4ccccc4)c3)CC2)c1 | 45
N#Cc1cnn(C(=O)CCCCCCc2ccccc2)c1 | > 5000
Cc1cnn(C(=O)N2CCN(Cc3ccc(Oc4ccccc4)cc3)CC2)c1 | 210
CN(CCN(C)C(=O)n1cc(C#N)cn1)Cc1cccc(Oc2ccccc2)c1 | 1.2
Cc1cnn(C(=O)N(C)CCN(C)Cc2ccc(Oc3ccccc3)cc2)c1 | 55
CC(C)(C)OC(=O)N1CCN(C(=O)n2cc(C#N)cn2)CC1 | 55
O=C(N1CCCN(Cc2cccc(Oc3ccccc3)c2)CC1)n1cccn1 | 6.3
O=C(N1CCN(Cc2cccc(Oc3ccccc3)c2)CC1)n1cccn1 | 6.1
N#Cc1cnn(C(=O)NCc2ccc(Oc3ccccc3)cc2)c1 | 9.8
O=C(N1CCN(Cc2cccc(OCc3ccccc3)c2)CC1)n1cccn1 | 5.8
Cc1cnn(C(=O)N2CCN(Cc3ccccc3)CC2)c1 | 250
O=C(N1CCCN(Cc2ccc(Oc3ccccc3)cc2)CC1)n1cccn1 | 9.3
O=C(OCCCCc1ccccc1)n1cccn1 | 710
Cc1cnn(C(=O)Oc2ccc3ccccc3c2)c1 | > 5000
Cc1cnn(C(=O)N2CCCN(Cc3cccc(OCc4ccccc4)c3)CC2)c1 | 210

Structure (SMILES) | Ki [nM]
N#Cc1cnn(C(=O)N2CCN(Cc3ccccc3)CC2)c1 | 75
CC(C)(C)OC(=O)N1CCCN(C(=O)n2cccn2)CC1 | 620
O=C(OCc1ccc(-c2ccccc2)cc1)n1cccn1 | > 5000
N#Cc1cnn(C(=O)N2CCN(Cc3cccc(OCc4ccccc4)c3)CC2)c1 | 0.15
Cc1ccc(COC(=O)n2cc(C#N)cn2)cc1 | > 5000
O=C(CCCCCc1ccccc1)n1cccn1 | > 5000
Cc1cnn(C(=O)NCCCCc2ccccc2)c1 | 550
N#Cc1cnn(C(=O)N2CCCN(Cc3cccc(Oc4ccccc4)c3)CC2)c1 | 0.23
N#Cc1cnn(C(=O)N2CCN(Cc3ccc(Oc4ccccc4)cc3)CC2)c1 | 0.1
O=C(OCc1ccc(Oc2ccccc2)cc1)n1cccn1 | 460
N#Cc1cnn(C(=O)N2CCN(Cc3cccc(Oc4ccccc4)c3)CC2)c1 | 0.19
Cc1cnn(C(=O)OCc2ccc(OCc3ccccc3)cc2)c1 | 1260
N#Cc1cnn(C(=O)NCc2ccc(-c3ccccc3)cc2)c1 | > 5000
N#Cc1cnn(C(=O)Cc2ccc3ccccc3c2)c1 | > 5000
Cc1cnn(C(=O)Nc2ccc3ccccc3c2)c1 | > 5000
N#Cc1cnn(C(=O)Cc2ccc(-c3ccccc3)cc2)c1 | > 5000
Cc1cnn(C(=O)N(C)CCN(C)C(=O)OC(C)(C)C)c1 | 710
Cc1cnn(C(=O)CCCCc2ccccc2)c1 | > 5000
Cc1cnn(C(=O)CCCCCc2ccccc2)c1 | > 5000
Cc1ccc(COC(=O)n2cc(C)cn2)cc1 | > 5000
Cc1cnn(C(=O)NCc2ccc(-c3ccccc3)cc2)c1 | > 5000
N#Cc1cnn(C(=O)OCc2ccc(Oc3ccccc3)cc2)c1 | 60
O=C(NCc1ccc2ccccc2c1)n1cccn1 | > 5000
Cc1cnn(C(=O)N2CCCN(C(=O)OC(C)(C)C)CC2)c1 | 2900

Structure (SMILES) | Ki [nM]
N#Cc1cnn(C(=O)N2CCN(Cc3ccc(-c4ccccc4)cc3)CC2)c1 | 0.19
CN(CCN(C)C(=O)n1cccn1)Cc1cccc(Oc2ccccc2)c1 | 5.7
O=C(OCc1ccc(OCc2ccccc2)cc1)n1cccn1 | 260
O=C(NCCCc1ccccc1)n1cccn1 | 980
O=C(Nc1ccc2ccccc2c1)n1cccn1 | > 5000
N#Cc1cnn(C(=O)NCc2ccc3ccccc3c2)c1 | > 5000
N#Cc1cnn(C(=O)Oc2ccc3ccccc3c2)c1 | > 5000
CN(CCN(C)C(=O)n1cc(C#N)cn1)C(=O)OC(C)(C)C | 16
O=C(CCCCc1ccccc1)n1cccn1 | > 5000
O=C(Cc1ccc(-c2ccccc2)cc1)n1cccn1 | > 5000
O=C(N1CCN(Cc2ccc(Oc3ccccc3)cc2)CC1)n1cccn1 | 9.2
O=C(N1CCN(Cc2ccc(-c3ccccc3)cc2)CC1)n1cccn1 | 12
Cc1cnn(C(=O)NCc2ccc(Oc3ccccc3)cc2)c1 | 290
O=C(NCCCCc1ccccc1)n1cccn1 | 290
CC(C)(C)OC(=O)N1CCN(C(=O)n2cccn2)CC1 | 340
Cc1cnn(C(=O)N2CCCN(Cc3cccc(Oc4ccccc4)c3)CC2)c1 | 75
N#Cc1cnn(C(=O)NCCCCc2ccccc2)c1 | 18
N#Cc1cnn(C(=O)OCCCCCc2ccccc2)c1 | 4200
O=C(Cc1ccc2ccccc2c1)n1cccn1 | > 5000
N#Cc1cnn(C(=O)CCCCc2ccccc2)c1 | > 5000
Cc1cnn(C(=O)OCc2ccc3ccccc3c2)c1 | > 5000
O=C(NCCCCCc1ccccc1)n1cccn1 | 280
CN(CCN(C)C(=O)n1cc(C#N)cn1)Cc1ccc(Oc2ccccc2)cc1 | 2
Cc1ccc(CNC(=O)n2cc(C)cn2)cc1 | > 5000

Structure (SMILES) | Ki [nM]
CN(CCN(C)C(=O)n1cccn1)Cc1ccc(Oc2ccccc2)cc1 | 10
Cc1cnn(C(=O)OCCCCc2ccccc2)c1 | > 5000
N#Cc1cnn(C(=O)OCc2ccc(-c3ccccc3)cc2)c1 | > 5000
Cc1cnn(C(=O)NCCCCCc2ccccc2)c1 | 560
Cc1cnn(C(=O)OCc2ccc(-c3ccccc3)cc2)c1 | > 5000
Cc1cnn(C(=O)Cc2ccc3ccccc3c2)c1 | 5000
Cc1cnn(C(=O)N2CCCN(Cc3ccc(Oc4ccccc4)cc3)CC2)c1 | 110
O=C(Oc1ccc2ccccc2c1)n1cccn1 | > 5000
N#Cc1cnn(C(=O)OCCCc2ccccc2)c1 | 3500
O=C(NCc1ccc(-c2ccccc2)cc1)n1cccn1 | > 5000
Cc1cnn(C(=O)OCCCc2ccccc2)c1 | > 5000
N#Cc1cnn(C(=O)OCc2ccc(OCc3ccccc3)cc2)c1 | 145
N#Cc1cnn(C(=O)OCc2ccc3ccccc3c2)c1 | > 5000
Cc1cnn(C(=O)CCCCCCc2ccccc2)c1 | > 5000
Cc1ccc(CNC(=O)n2cccn2)cc1 | > 5000
Cc1cnn(C(=O)Cc2ccc(-c3ccccc3)cc2)c1 | > 5000
Cc1cnn(C(=O)OCCCCCc2ccccc2)c1 | > 5000
O=C(N1CCN(Cc2ccccc2)CC1)n1cccn1 | 180
CN(CCN(C)C(=O)n1cccn1)C(=O)OC(C)(C)C | 80
Cc1ccc(COC(=O)n2cccn2)cc1 | > 5000
O=C(N1CCN(Cc2ccc3ccccc3c2)CC1)n1cc(Br)cn1 | 0.47
O=C(N1CCCN(Cc2cccc(OCc3ccccc3)c2)CC1)n1cccn1 | 12
N#Cc1cnn(C(=O)N2CCCN(Cc3cccc(OCc4ccccc4)c3)CC2)c1 | 0.7
Cc1cnn(C(=O)N2CCN(Cc3cccc(OCc4ccccc4)c3)CC2)c1 | 25
